# Values of other authors in US12478593B2, “Formulations for hair growth” (JENIVISION INC., priority 2016, dated 2025).
# Tests used:
# [1] = tested on: eyelash hair follicle growth cycle; conditions: mouse eyelash model
# [2] = tested on: eyelashes; conditions: humans
# [3] = Xalatan
SMILES,effect on anagen growth phase of eyelashes [1],eyelash growth [2],stability in aqueous solution (de-esterification) [3]
CCNC(=O)CCC/C=C\C[C@@H]1[C@@H](/C=C/[C@@H](O)CCc2ccccc2)[C@H](O)C[C@@H]1O [bimatoprost],increased entry into anagen and extension of the anagen growth phase,produces eyelash growth,–
CC(C)OC(=O)CCC/C=C\C[C@@H]1[C@@H](CC[C@@H](O)CCc2ccccc2)[C@H](O)C[C@@H]1O [latanoprost],–,–,facile hydrolysis
